These results are taken from ChEMBL document CHEMBL1157155, “Bioactive alkenylphenols from Piper obliquum” (Bioorg Med Chem, 2008).

The structures appear in SMILES notation. In brackets after ≈: the same amount, converted by molar mass. Activity calls are given as the source filed them. The rule behind the calls is not given here.

For assay [1], the system named is Jurkat. The assay is described as follows: (§1) Effect on NF-kappaB expressed in Jurkat 5.1 cells assessed as inhibition of TNF-alpha-induced HIV1-LTR transactivation preincubated for 15 mins by luciferase gene reporter assay. It counts as cell-based. (Reporter assays use an easily measured gene product as a stand-in for the process of interest.)
Another assay concerns Escherichia coli. The assay is described as follows: Antibacterial activity against Escherichia coli after 24 hrs by broth microdilution method. It counts as functional.
The test system of assay [2] is Staphylococcus epidermidis. The assay is described as follows: Antibacterial activity against Staphylococcus epidermis after 24 hrs by broth microdilution method. It counts as functional. In general terms: In broth dilution the organism is exposed to a series of concentrations in liquid medium.
Assay [3] can be described thus: as §1. It counts as cell-based.
A short description of assay [4]: Effect on NF-kappaB expressed in HeLa-Tet-On cells assessed as inhibition of doxycyclin-induced HIV1-LTR transactivation preincubated for 15 mins by luciferase gene reporter assay. It counts as cell-based.
Assay [5] has as its system Jurkat. The assay is described as follows: Effect on NF-kappaB expressed in Jurkat 5.1 cells assessed as inhibition of TNF-alpha-induced IkappaBalpha phosphorylation at 10 uM preincubated for 15 mins by Western blot. It counts as cell-based. Background: In western blotting, separated proteins are transferred to a membrane and probed.
For assay [6], the system named is Jurkat. Nature of the assay: Effect on NF-kappaB expressed in Jurkat 5.1 cells assessed as inhibition of TNF-alpha-induced IkappaBalpha degradation at 10 uM preincubated for 15 mins by Western blot. It counts as cell-based.

As to `CC(C)=CCC/C(C)=C/CCC1(C)CC(=O)c2cc(C(=O)O)ccc2O1` (configuration not stated), the result in the assay with Jurkat [1] was inactive. Moreover, the figures for the MIC (in the assay with Escherichia coli; in assay [2]) were 100 µg/mL (≈ 281 µM) and 50 µg/mL (≈ 140 µM), respectively.
Regarding `CC1(C)S[C@@H]2[C@H](NC(=O)[C@H](N)c3ccccc3)C(=O)N2[C@H]1C(=O)O` [AMPICILLIN], the results for the MIC (against Escherichia coli; in assay [2]) were 5 µg/mL (≈ 14.3 µM) and 1 µg/mL (≈ 2.86 µM), respectively.
With `CCCCCCCCC/C=C/CCCc1ccc(O)cc1` [OBLIQUOL A], the MIC (usually the least concentration at which growth counts as inhibited) was 5 µg/mL (≈ 17.3 µM) with Escherichia coli and 2.5 µg/mL (≈ 8.67 µM) in assay [2].
Regarding `CCCCCCCCC/C=C/CCCc1ccc(O)c(O)c1` [OBLIQUOL B], in assay [3], the IC50 (commonly the concentration at which inhibition is half-maximal) amounted to 5 µM. In assay [4], the outcome was inactive. Also, the MIC (against Escherichia coli; in assay [2]) was 5 µg/mL (≈ 16.4 µM) each time. Also, the result in the assay on Jurkat [5] and in the assay on Jurkat [6] was Active.
Take `CC(C)=CCC/C(C)=C/CC/C(C)=C/Cc1cc(C(=O)O)ccc1O`: the outcome with Jurkat [1] was inactive.
As for `COc1ccc(/C=C/C(=O)c2c(O)cc(OC)c(OC)c2OC)cc1OC`, the outcome with Jurkat [1] was inactive. Besides, the MIC (against Escherichia coli; in assay [2]) was 10 µg/mL (≈ 26.7 µM) throughout.
